This passage reports melting point, inhibition and IC50 results from article PMC5094990, “Novel 1, 3-N, O-Spiroheterocyclic compounds inhibit heparanase activity and enhance nedaplatin-induced cytotoxicity in cervical cancer cells” (Oncotarget, 2016).

One data set concerns HeLa cells. Briefly: MTT assay, growth inhibition of HeLa cells. In kind it is cell-based, human. The settings on record: Homo sapiens, HeLa; for inhibition at 1 µM / inhibition at 5 µM / inhibition at 15 µM / inhibition at 30 µM / inhibition at 60 µM / inhibition at 120 µM / inhibition at 180 µM / inhibition at 240 µM: 48 hs, mean ± s, read-out: Growth inhibition rate in HeLa cells; for IC50: 48 hours, MTT, read-out: IC50, growth inhibition of HeLa cells. Here is the method: Cells were cultured in improved medium supplemented with 10% FBS and kept at 37°C in a […] humidified atmosphere containing 5% CO2. Logarithmic phase cells were used for the experiment and were treated with different concentrations of different medications for different amounts of time. […] Inhibitors were made into 10 mM stock solutions with DMSO, filtered, and kept at room temperature away from light. These inhibitor stock solutions were diluted to the required concentration (1, 5, 15, 30, 60, 120, 180, or 240 μM) before every experiment. The final doses of nedaplatin were […]. In order to determine whether an HPA inhibitor sensitized cells to nedaplatin, 10 μM of inhibitor number 16 (No. 16) was added into each experimental well with nedaplatin.
200 μl of single-cell suspension at a density of 5 × 10^4 cells/ml was seeded into 96-well plates. When cells were adherent, the medium was replaced with 200 μl of medium containing different concentrations of inhibitor or nedaplatin, and the cells were further incubated for 24 hours to 96 hours respectively. 20 μl MTT solution ([…] in phosphate buffered saline (PBS)) was added to each well 4 hours before the treatment ended. The cells were then incubated for another 4 hours, after which the supernatants were removed. The cells were totally solubilized in 150 μl DMSO. OD values were measured at the wavelength of 492 nm with a reference wavelength of 630 nm. Inhibition rate (IR) in the cells was calculated as follows: IR = ((OD2-OD0)-(OD1-OD0))/(OD2-OD0) × 100%, where OD0 was the OD value of blank wells, OD2 was the value of normal control wells, and OD1 was the value of experimental wells. Each condition was replicated in six separate wells.

For another data set, the target named is T1, human recombinant HPA (Homo sapiens, UniProt Q9Y251).
T1 sequence (Q9Y251 158-543 limits assumed): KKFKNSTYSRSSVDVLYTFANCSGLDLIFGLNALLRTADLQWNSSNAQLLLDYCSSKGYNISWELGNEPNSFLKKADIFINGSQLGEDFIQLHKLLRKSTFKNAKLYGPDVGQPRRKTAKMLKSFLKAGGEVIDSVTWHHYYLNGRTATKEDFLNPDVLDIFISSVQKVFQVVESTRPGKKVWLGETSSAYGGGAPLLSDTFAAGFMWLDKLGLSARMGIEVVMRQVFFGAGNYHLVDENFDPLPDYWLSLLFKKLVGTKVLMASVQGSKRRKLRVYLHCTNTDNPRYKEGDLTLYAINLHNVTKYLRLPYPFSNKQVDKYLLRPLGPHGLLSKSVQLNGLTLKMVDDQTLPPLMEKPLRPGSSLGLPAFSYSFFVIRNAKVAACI
T1 sequence (Q9Y251 36-109 limits assumed): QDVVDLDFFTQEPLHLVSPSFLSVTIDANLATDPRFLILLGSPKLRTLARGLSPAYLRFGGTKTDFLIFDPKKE
In words: Detection of HPA activity inhibition (Heparan Degrading Enzyme Assay Kit). The following applies: 31 mIU human recombinant HPA, 37°C, 45 minutes; read-out: IC50, inhibitory effect on heparanase activity. In kind it is biochemical. Here is the method: The final reaction volume of each vial was 100 μl. […] Then, 100 μl of terminating liquid was added into each well. OD values were examined at a wavelength of 450 nm. Each concentration was tested in three separate wells. GraphPad Prism 5 (GraphPad Prism Software Inc., San Diego) was used to calculate the inhibitory IC50 values.

For `COc1ccc(C2CNC(c3c(F)cccc3F)OC23CCCCC3)cc1` (stereo not shown), the melting point lay in the range of 131.7 to 132.6 °C.
`COc1ccc(C2CNC(c3ccc(F)cc3F)OC23CCCCC3)cc1` (stereo not shown) [No. 22] displayed a melting point of 128.7 to 129.6 °C. For the same compound, in the data set on HeLa cells, the inhibition at 1 µM was -3.13 ± 0.705%, the inhibition at 5 µM is -0.339 ± 0.0726%, the inhibition at 15 µM came out at 4.27 ± 0.729% and the inhibition at 30 µM turned out to be 22.1 ± 0.976%. In the data set with HeLa cells, the inhibition at 60 µM was 36.13 ± 0.285%, the inhibition at 120 µM turned out to be 66 ± 0.898%, the inhibition at 180 µM was found to be 93.9 ± 1.67% and the inhibition at 240 µM was determined as 95.18 ± 0.39%. Further, the IC50 in the data set on HeLa cells was found to be 75.2 µM.
In the case of `Fc1ccc(C2NCC(c3ccccc3)C3(CCCCC3)O2)cc1` (stereo not shown) [No. 12], in the data set with HeLa cells, the inhibition at 1 µM was -5.15 ± 0.0626%, the inhibition at 5 µM was -1.54 ± 0.472%, the inhibition at 15 µM is 5.39 ± 0.33% and the inhibition at 30 µM came out at 8.76 ± 1.21%. Besides, in the data set with HeLa cells, the inhibition at 60 µM was found to be 31.7 ± 1.21%, the inhibition at 120 µM came out at 55.5 ± 0.671%, the inhibition at 180 µM turned out to be 89.01 ± 0.491% and the inhibition at 240 µM is 90.89 ± 0.416%. For the same compound, the IC50 in the data set with HeLa cells worked out at 96.6 µM.
`COc1ccc(C2CNC(c3ccc([N+](=O)[O-])cc3)OC23CCCCC3)cc1` (stereo not shown) [No. 15] came in with a melting point of 111.3 to 112.5 °C. Also, the half-maximal inhibitory concentration (IC50) on human recombinant HPA was 28.8 µM. Moreover, in the data set on HeLa cells, the inhibition at 1 µM is 9.12 ± 0.166%, the inhibition at 5 µM worked out at 17 ± 0.732%, the inhibition at 15 µM is 25.2 ± 0.947% and the inhibition at 30 µM was 33.2 ± 2.34%. In addition, in the data set on HeLa cells, the inhibition at 60 µM is 36.2 ± 0.592%, the inhibition at 120 µM amounted to 77.5 ± 3.82%, the inhibition at 180 µM turned out to be 92.4 ± 3.08% and the inhibition at 240 µM came to 95.2 ± 3.11%. The IC50 with HeLa cells is 80 µM.
